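Grown in 96-well plates, cells were treated for 48 hours with each compound at five concentrations. Insufficient inhibition: endpoint recorded as highest concentration tested. Here, GI50 denotes the concentration required for 50% inhibition of growth.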 Active and inactive are the calls of the source. Rule as the data show it: active = GI50 up to about 1.1 µM and inactive = higher.
What was measured:
Test in all cases: NCI anticancer screen, dose series, 48 h
HOP-18 = test system: HOP-18
LXFL 529 = test system: LXFL 529
SNB-78 = test system: SNB-78
DLD-1 = test system: DLD-1
M19-MEL = test system: M19-MEL
DMS-114 = test system: DMS-114
DMS-273 = test system: DMS-273
XF498 = test system: XF498
RXF 631 = test system: RXF 631

Row | SMILES | GI50 (HOP-18) | GI50 (LXFL 529) | GI50 (SNB-78) | GI50 (DLD-1) | GI50 (M19-MEL) | GI50 (DMS-114) | GI50 (DMS-273) | GI50 (XF498) | GI50 (RXF 631)
1 | CCOc1cc2cnc3c4cc(OC)c(OC)cc4ccc3c2cc1OC | 16.9 µM (inactive) | 9.02 µM (inactive) | > 100 µM (inactive) | > 100 µM (inactive) | 39.8 µM (inactive) | 7.1 µM (inactive) | – | – | –
2 | Cc1cccc(C)c1NC(=O)CCc1n[nH]c(=S)o1 | > 100 µM (inactive) | > 100 µM (inactive) | > 100 µM (inactive) | 67.9 µM (inactive) | > 100 µM (inactive) | 39.1 µM (inactive) | 44.7 µM (inactive) | – | –
3 | CC(C)(C)C(=O)OC12/C(=N/O)CCCCCC1c1ccccc12 (configuration not stated) | 18.8 µM (inactive) | 16.3 µM (inactive) | 25.1 µM (inactive) | 19.5 µM (inactive) | 16.6 µM (inactive) | 19.4 µM (inactive) | 17.9 µM (inactive) | – | –
4 | CCc1c(CNc2ccc(C(=O)NC(CC(=O)O)C(=O)O)cc2)ccc2nc(N)nc(N)c12 (configuration not stated) | > 61.9 µM (inactive) | – | > 60.3 µM (inactive) | < 0.0223 µM (active) | 0.133 µM (active) | < 0.0262 µM (active) | < 0.0202 µM (active) | > 100 µM (inactive) | –
5 | COc1ccc(C(=O)C(C(=O)C(=O)Nc2ccc(Cl)c(Cl)c2)c2ccc(OC)cc2)cc1 (configuration not stated) | > 100 µM (inactive) | > 100 µM (inactive) | > 100 µM (inactive) | > 100 µM (inactive) | > 100 µM (inactive) | 76.9 µM (inactive) | > 100 µM (inactive) | > 100 µM (inactive) | –
6 | Cc1nc(N)sc1C(=O)/C=C/c1ccc(/C=C/C(=O)c2sc(NC(=O)CCCCCCCCC(=O)Nc3nc(C)c(C(=O)/C=C/c4ccc(/C=C/C(=O)c5sc(N)nc5C)cc4)s3)nc2C)cc1 | > 100 µM (inactive) | > 100 µM (inactive) | 58.5 µM (inactive) | > 100 µM (inactive) | > 100 µM (inactive) | > 100 µM (inactive) | > 100 µM (inactive) | > 100 µM (inactive) | > 100 µM (inactive)
7 | COc1ccc(N2C(=O)/C(=C/c3ccc(N(CCC#N)CCC#N)cc3C)N=C2/C=C\c2ccccc2)cc1 | > 100 µM (inactive) | 8.43 µM (inactive) | > 100 µM (inactive) | > 100 µM (inactive) | 26.5 µM (inactive) | 23.9 µM (inactive) | – | – | > 100 µM (inactive)
8 | COc1cc(C2(C)SCCCS2)c(I)c(OC)c1OC | > 100 µM (inactive) | > 100 µM (inactive) | > 100 µM (inactive) | > 100 µM (inactive) | > 100 µM (inactive) | > 100 µM (inactive) | > 100 µM (inactive) | > 100 µM (inactive) | > 100 µM (inactive)
9 | O=C1CCN2C(=Nc3cccc4cccc2c34)N1 | – | > 100 µM (inactive) | > 100 µM (inactive) | – | > 100 µM (inactive) | > 100 µM (inactive) | > 100 µM (inactive) | > 100 µM (inactive) | –
10 | CP(C)C.[Ag][I] | 62.8 µM (inactive) | 16 µM (inactive) | 28.4 µM (inactive) | > 100 µM (inactive) | > 100 µM (inactive) | 73.8 µM (inactive) | > 100 µM (inactive) | 15 µM (inactive) | 24.3 µM (inactive)
11 | CCOC(=O)C1=C(NC(C)(C)C)OC/C1=N\NC(=O)Cc1ccccc1 | > 100 µM (inactive) | > 100 µM (inactive) | > 100 µM (inactive) | > 100 µM (inactive) | > 100 µM (inactive) | > 100 µM (inactive) | > 100 µM (inactive) | > 100 µM (inactive) | > 100 µM (inactive)
12 | CCOC(=O)C1=C(O)C(=O)c2ccsc2C1=O | > 100 µM (inactive) | – | > 100 µM (inactive) | > 100 µM (inactive) | 20.6 µM (inactive) | > 100 µM (inactive) | > 100 µM (inactive) | – | –
13 | Cc1ccc(C2=Nc3ccccc3SC(c3cccc4c3OCO4)C2)cc1 (configuration not stated) | 13.5 µM (inactive) | 15 µM (inactive) | – | 27.9 µM (inactive) | 19.8 µM (inactive) | – | 19.7 µM (inactive) | 15.5 µM (inactive) | –
14 | CCOC(=O)CC(NCc1ccc(/N=C/c2nc3ccc(C(F)(F)F)cc3nc2-c2ccccc2)cc1)C(=O)OCC (configuration not stated) | 24.7 µM (inactive) | > 100 µM (inactive) | > 72.1 µM (inactive) | > 100 µM (inactive) | > 100 µM (inactive) | > 68.5 µM (inactive) | > 64.1 µM (inactive) | 14.2 µM (inactive) | –
15 | CCOC(=O)C(NO)C(Sc1ccccc1)c1ccc(OC)cc1 (configuration not stated) | > 100 µM (inactive) | > 100 µM (inactive) | > 100 µM (inactive) | 72.9 µM (inactive) | 69.2 µM (inactive) | 64.7 µM (inactive) | > 100 µM (inactive) | 31 µM (inactive) | –
16 | COc1cc(N)c2[nH]c3c(C)ccc(C)c3c2c1 | – | – | > 100 µM (inactive) | > 100 µM (inactive) | > 100 µM (inactive) | > 100 µM (inactive) | > 100 µM (inactive) | > 100 µM (inactive) | –
17 | O=C(O)C1(c2ccccc2)CCCNCC1 (configuration not stated) | > 100 µM (inactive) | > 100 µM (inactive) | > 100 µM (inactive) | > 100 µM (inactive) | > 100 µM (inactive) | > 100 µM (inactive) | > 100 µM (inactive) | – | > 100 µM (inactive)
18 | Cc1[nH]c2ccccc2c1C1=NO/C(=N\O)C(c2c(C)[nH]c3ccccc23)C1 (configuration not stated) | 32.4 µM (inactive) | 35.6 µM (inactive) | 35.4 µM (inactive) | 42.3 µM (inactive) | 41.3 µM (inactive) | 36.8 µM (inactive) | 35.9 µM (inactive) | 53 µM (inactive) | 31 µM (inactive)
19 | CN(C)C(=S)/N=c1\ssc(=S)n1-c1ccccc1 | > 100 µM (inactive) | 12.4 µM (inactive) | 19.4 µM (inactive) | 13.8 µM (inactive) | 16.3 µM (inactive) | 15.9 µM (inactive) | 20.9 µM (inactive) | 14.7 µM (inactive) | –
20 | COC(=O)C1=C(C(=O)OC)C2(C)OC1C(=O)C21CC1 (configuration not stated) | – | 19.5 µM (inactive) | – | 19.1 µM (inactive) | 71 µM (inactive) | 20.4 µM (inactive) | 17.7 µM (inactive) | 13.6 µM (inactive) | 17.1 µM (inactive)
21 | OCn1nc2c(C3OCCO3)cc3ccccc3n2c1=S | > 100 µM (inactive) | > 100 µM (inactive) | > 100 µM (inactive) | > 100 µM (inactive) | > 100 µM (inactive) | > 100 µM (inactive) | > 100 µM (inactive) | > 100 µM (inactive) | > 100 µM (inactive)
22 | O=C(Cc1nc2ccccc2s1)C(=O)Nc1ccc(Cl)cc1Cl | – | > 100 µM (inactive) | > 100 µM (inactive) | > 100 µM (inactive) | > 100 µM (inactive) | – | > 100 µM (inactive) | > 100 µM (inactive) | > 100 µM (inactive)
23 | CC(=O)OC1CC2C(C)(C)C(=O)C=C[C@]2(C)C2CCC3(C)C(c4ccoc4)C(=O)C4OC43[C@]12C (some centres not stated) | 99.3 µM (inactive) | 22.6 µM (inactive) | 51.1 µM (inactive) | 16.5 µM (inactive) | 16 µM (inactive) | 16.1 µM (inactive) | 31.6 µM (inactive) | – | –
24 | COc1cc([C@@H]2OCC3C(c4ccc5c(c4)OCO5)OCC32)cc(OC)c1OC (some centres not stated) | – | 43.1 µM (inactive) | > 100 µM (inactive) | > 100 µM (inactive) | > 100 µM (inactive) | 35.5 µM (inactive) | 76.4 µM (inactive) | 52.6 µM (inactive) | –
25 | CC(C)=CCC/C(C)=C/CC/C(C)=C/Cc1c(O)c2ccccc2oc1=O | > 100 µM (inactive) | > 100 µM (inactive) | > 100 µM (inactive) | > 100 µM (inactive) | > 100 µM (inactive) | 83.6 µM (inactive) | > 100 µM (inactive) | – | –
26 | COc1ccc2[nH]cc(CCNC(C)=O)c2c1 [MELATONIN] | > 100 µM (inactive) | > 100 µM (inactive) | > 100 µM (inactive) | > 100 µM (inactive) | > 100 µM (inactive) | > 100 µM (inactive) | > 100 µM (inactive) | > 100 µM (inactive) | –
27 | CCCCCCCCCCCCCCCCOP(=O)([O-])OCC[N+](C)(C)C [MILTEFOSINE] | 39.4 µM (inactive) | – | 47.6 µM (inactive) | 18.9 µM (inactive) | 15.6 µM (inactive) | 32.6 µM (inactive) | 6.92 µM (inactive) | 17.9 µM (inactive) | –

From ChEMBL document CHEMBL1201862, “PubChem BioAssay data set” (2004)
